In paper PMC12440207 (PLOS Pathogens, 2025):
Entries after “also recorded” stand apart in the source; their conditions may differ.

Columns and labels:
Ovo-SLO-1A [1] = target: T1, Ovo-SLO-1A (Onchocerca volvulus, UniProt A0A2K6W0E9); assay: Two-electrode voltage clamp of Xenopus oocytes expressing Ovo-SLO-1A; format: cell-based
Experimental: (§1) Defolliculated Xenopus laevis oocytes were purchased from Ecocyte Bioscience (Austin, TX, USA) and Xenopus 1 Corp (Dexter, MI, USA). Heterologous expression of the Bma-SLO-1F receptor was achieved by injecting 15 ng of cRNA in a total volume of 50 nL in nuclease-free water. Each oocyte was microinjected into the cytoplasm of the animal pole region using a Drummond Nanoject II microinjector (Drummond Scientific, Broomall, PA, USA). After injection, oocytes were incubated at 17°C in a sterile 96-well culture plate containing 300 μl of incubation solution (100 mM NaCl, 2 mM KCl, 1.8 mM CaCl2.2H2O, 1 mM MgCl2.6H2O, 5 mM HEPES, 2.5 mM Na pyruvate, 100 U/mL penicillin and 100 μg/mL streptomycin, pH 7.5) in each well. Incubation solution was changed daily during the period of incubation. The same procedure was also conducted for the Ovo-SLO-1A receptor. Experiments were performed on oocytes within 5 – 6 days post injection.
(§2) TEVC was conducted at room temperature by impaling oocytes with two microelectrodes; a current injecting electrode, Im, used to inject the required current for holding the membrane at a set voltage, and a voltage sensing electrode, Vm. The microelectrodes were pulled using a Flaming/Brown horizontal electrode puller (Model P-97; Sutter Instruments, Novato, CA, USA) and filled with 3 M KCl. Each electrode tip was broken with a piece of Kimwipe paper (Kimtech Science, Fisher) to achieve a resistance of 2 – 5 MΏ in recording solution (88 mM NaCl, 2.5 mM KCl, 1 mM MgCl2.6H2O, 1.8 mM CaCl2.2H2O and 5 mM HEPES, at pH 7.4). […] Amplified signals were converted from analog to digital format by a Digidata 1322A digitizer (Molecular Devices, CA, USA) and all data were acquired on a desktop computer with the Clampex 10.3 data acquisition software (Molecular Devices, Sunnyvale, CA, USA).
(§3) For our recordings, the times for drug applications were selected to allow the currents recorded to reach a stable plateau. At the beginning of experiments the Xenopus oocytes were perfused with drug free recording solution for 1 min, to obtain stable initial resting currents. […] Washing of the Xenopus oocytes then followed for 3 mins.
(§4) GraphPad Prism 10.1.1 software (GraphPad Software Inc., USA) was used to generate Concentration-response curves using the log agonist vs. response equation (variable slope) to estimate EC50, Rmax and Hillslope (nH) values for both Bma-SLO-1F and Ovo-SLO-1A channels. We also used the unpaired two-tailed Student’s t-test to test for statistical significance. A p value < 0.05 was deemed significant. The analyzed results were expressed as mean ± S.E.M.
(§5) The results were expressed as the mean ± S.E.M.
(§6) Results were expressed as the mean ± S.E.M.

Bma-SLO-1F [2] = target: T2, Bma-SLO-1F (Brugia malayi, UniProt A0A0J9Y9H3); assay: Two-electrode voltage clamp of Xenopus oocytes expressing Bma-SLO-1F; format: cell-based
Experimental: as §1, §2, §3, §4, §5, §6

Ovo-SLO-1A [3] = target: T1, Ovo-SLO-1A; assay: Voltage step electrophysiology (current-voltage relationship), Ovo-SLO-1A oocytes; format: cell-based; settings: 1 µM emodepside
Experimental: (§7) Briefly, oocytes expressing either Bma-SLO-1F or Ovo-SLO-1A channels were impaled and subjected to a current-voltage protocol that consisted of 500 ms voltage steps from -120 to + 60 mV in 20 mV increments, starting from a holding position of -70 mV for 1 s between each step. Plateau currents were recorded at a frequency of 5000 Hz during clamping and perfused with recording solution: (88 mM NaCl, 2.5 mM, KCl, 1 mM MgCl2.6H2O, 1.8 mM CaCl2.2H2O and 5 mM HEPES, at pH 7.4). The results of the voltage steps were evaluated and analyzed using the ClampFit 10.3 software (Molecular Devices), whereas current-voltage curves (IVCs) were prepared using Graphpad Prism 10.1.1(GraphPad Software, Inc., USA).
(§8) To obtain current-voltage curves (IVCs) from our voltage steps experiments, plateau currents elicited at each step potential (-120 to + 60 mV) were acquired for individual oocytes in Clampfit 10.3 (Molecular Devices, Sunnyvale, CA, USA). Mean currents for all replicate oocytes were plotted against their corresponding voltage step potentials to obtain IVCs using Graphpad Prism 10.1.1 software (GraphPad Software, Inc., USA). […] Subsequently, statistical differences for slope values among treatment groups were analyzed using ANOVA, followed by the Tukey multiple comparison post-hoc test. Results were expressed as mean ± S.E.M.

Bma-SLO-1F [4] = target: T2, Bma-SLO-1F; assay: Voltage step electrophysiology (current-voltage relationship), Bma-SLO-1F oocytes; format: cell-based
Experimental: as §7, §8

[5] = tested on: water injected oocytes (endogenous channels of Xenopus laevis); assay: Electrophysiology of water injected oocytes (control); format: cell-based
Experimental: as §2, §7
To obtain current-voltage curves (IVCs) from our voltage steps experiments, plateau currents elicited at each step potential (-120 to + 60 mV) were acquired for individual oocytes in Clampfit 10.3 (Molecular Devices, Sunnyvale, CA, USA). […] Subsequently, statistical differences for slope values among treatment groups were analyzed using ANOVA, followed by the Tukey multiple comparison post-hoc test. Results were expressed as mean ± S.E.M.

mammalian BK channel = tested on: mammalian BK channel; set-up: method as in PMID 24561672; settings: mammalian BK channel activator; cited from earlier work
[6] = 0.3 µM emodepside + 3 µM GoSlo-SR-5-69 co-applied, n = 6
[7] = absence of GoSlo-SR-5-69, modulation experiment, n = 6
[8] = emodepside alone, +20 mV, n = 10
[9] = emodepside concentration-response, n = 10
[10] = in the presence of 3 µM GoSlo-SR-5-69, n = 6
[11] = 3 µM GoSlo-SR-5-69 + 0.3 µM emodepside, Ca2+ replaced with equimolar Co2+
[12] = 3 µM GoSlo-SR-5-69 alone, +20 mV
[13] = 3 µM GoSlo-SR-5-69 on 0.3 µM emodepside response

T1 sequence (A0A2K6W0E9 entry or part of it): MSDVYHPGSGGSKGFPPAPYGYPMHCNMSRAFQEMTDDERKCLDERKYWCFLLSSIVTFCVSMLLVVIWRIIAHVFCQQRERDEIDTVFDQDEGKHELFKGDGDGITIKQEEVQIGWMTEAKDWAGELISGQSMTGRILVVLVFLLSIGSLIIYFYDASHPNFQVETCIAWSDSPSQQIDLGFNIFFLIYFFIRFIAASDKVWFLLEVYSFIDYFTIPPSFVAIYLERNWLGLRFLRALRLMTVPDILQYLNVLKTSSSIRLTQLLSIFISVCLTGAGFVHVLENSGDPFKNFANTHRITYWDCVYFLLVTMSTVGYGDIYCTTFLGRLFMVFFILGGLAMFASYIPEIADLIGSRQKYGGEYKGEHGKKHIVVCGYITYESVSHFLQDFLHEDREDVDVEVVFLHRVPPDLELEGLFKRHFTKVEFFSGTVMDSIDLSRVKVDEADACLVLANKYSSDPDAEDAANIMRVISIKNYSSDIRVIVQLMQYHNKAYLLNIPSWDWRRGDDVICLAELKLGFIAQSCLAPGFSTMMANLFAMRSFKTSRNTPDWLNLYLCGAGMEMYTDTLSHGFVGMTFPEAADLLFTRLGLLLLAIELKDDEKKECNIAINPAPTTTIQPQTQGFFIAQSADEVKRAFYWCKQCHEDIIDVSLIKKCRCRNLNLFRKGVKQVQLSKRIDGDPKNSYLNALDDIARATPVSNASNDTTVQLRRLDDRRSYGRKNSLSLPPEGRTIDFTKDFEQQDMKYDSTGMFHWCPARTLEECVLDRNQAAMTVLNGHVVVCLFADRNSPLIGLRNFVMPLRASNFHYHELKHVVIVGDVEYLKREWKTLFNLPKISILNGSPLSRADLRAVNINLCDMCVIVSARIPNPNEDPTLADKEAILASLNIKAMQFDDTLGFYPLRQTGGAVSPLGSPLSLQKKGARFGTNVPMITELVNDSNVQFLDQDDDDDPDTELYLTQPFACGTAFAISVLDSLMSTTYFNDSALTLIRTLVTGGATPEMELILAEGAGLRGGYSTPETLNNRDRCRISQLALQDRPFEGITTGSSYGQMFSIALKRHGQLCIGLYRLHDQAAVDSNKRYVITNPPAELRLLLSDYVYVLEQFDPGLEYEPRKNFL
T2 sequence (A0A0J9Y9H3 entry or part of it): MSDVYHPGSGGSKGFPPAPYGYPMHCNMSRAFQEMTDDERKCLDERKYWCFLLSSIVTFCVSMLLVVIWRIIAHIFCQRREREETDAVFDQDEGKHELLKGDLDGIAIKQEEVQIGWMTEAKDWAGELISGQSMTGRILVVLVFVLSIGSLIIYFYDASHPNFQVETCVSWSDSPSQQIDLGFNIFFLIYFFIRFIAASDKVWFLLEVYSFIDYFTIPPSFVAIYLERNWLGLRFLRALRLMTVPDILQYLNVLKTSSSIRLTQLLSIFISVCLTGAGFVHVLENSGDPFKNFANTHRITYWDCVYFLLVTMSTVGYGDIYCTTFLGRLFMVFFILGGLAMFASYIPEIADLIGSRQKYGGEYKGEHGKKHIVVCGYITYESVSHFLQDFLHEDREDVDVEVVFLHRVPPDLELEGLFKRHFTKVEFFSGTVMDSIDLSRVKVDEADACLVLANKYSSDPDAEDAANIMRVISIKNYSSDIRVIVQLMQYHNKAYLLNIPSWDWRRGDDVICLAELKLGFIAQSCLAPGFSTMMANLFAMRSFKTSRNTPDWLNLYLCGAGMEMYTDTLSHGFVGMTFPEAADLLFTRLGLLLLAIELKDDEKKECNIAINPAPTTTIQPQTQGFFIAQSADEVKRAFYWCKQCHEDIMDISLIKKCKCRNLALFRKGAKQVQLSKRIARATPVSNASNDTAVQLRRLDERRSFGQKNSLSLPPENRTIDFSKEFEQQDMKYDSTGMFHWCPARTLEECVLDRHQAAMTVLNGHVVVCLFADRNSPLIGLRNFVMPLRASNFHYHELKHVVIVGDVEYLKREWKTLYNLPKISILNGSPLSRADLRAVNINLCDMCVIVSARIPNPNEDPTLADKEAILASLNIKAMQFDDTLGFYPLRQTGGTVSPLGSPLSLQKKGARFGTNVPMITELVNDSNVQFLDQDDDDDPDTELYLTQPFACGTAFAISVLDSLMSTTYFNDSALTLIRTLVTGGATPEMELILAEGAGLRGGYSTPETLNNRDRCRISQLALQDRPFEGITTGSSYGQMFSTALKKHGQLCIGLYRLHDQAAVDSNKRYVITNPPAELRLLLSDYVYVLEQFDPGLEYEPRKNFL

Molecule: emodepside
- current response (Ovo-SLO-1A [1]; [6]): 6735 ± 272 nA
- current response (Ovo-SLO-1A [1]; 0.3 µM emodepside alone, n = 6): 4170 ± 355 nA
- sensitivity of Ovo-SLO-1A to emodepside relative to Bma-SLO-1F (EC50 ratio) (Ovo-SLO-1A [1]; Ovo-SLO-1A vs Bma-SLO-1F): 3.5 times
- Rmax of emodepside (Ovo-SLO-1A [1]; [7]): 2454 ± 87 nA
- maximum response (Rmax) (Ovo-SLO-1A [1]; [8]): 10762 ± 478 nA
- Hillslope (Ovo-SLO-1A [1]; [9]): 1.2 ± 0.1
- Rmax of emodepside (Ovo-SLO-1A [1]; [10]): 4928 ± 830 nA
- current (Imax) response (Bma-SLO-1F [2]; [6]): 2799 ± 100 nA
- current (Imax) response (Bma-SLO-1F [2]; 0.3 µM emodepside alone, n = 6): 954 ± 355 nA
- Rmax of emodepside (Bma-SLO-1F [2]; [7]): 2679 ± 318 nA
- maximum response (Rmax) (Bma-SLO-1F [2]; [8]): 6446 ± 287 nA
- Hillslope (Bma-SLO-1F [2]; [9]): 1.1 ± 0.1
- Rmax of emodepside (Bma-SLO-1F [2]; [10]): 4493 ± 433 nA
- reversal potential (Ovo-SLO-1A [3]; no change from basal): -71 mV
- slope conductance (Ovo-SLO-1A [3]; voltage steps -120 to +60 mV, n = 6 (basal 26 ± 2.9 µS)): 61 ± 4.4 µS
- slope conductance (Bma-SLO-1F [4]; 1 µM emodepside, voltage steps -120 to +60 mV, n = 6 (basal 2.4 ± 0.3 µS)): 12 ± 1.0 µS
- reversal potential (Bma-SLO-1F [4]; all current voltage plots, with and without 1 µM emodepside): ~-72 mV
- response of water injected oocytes ([5]; 0.3 µM emodepside, +20 mV): no response
- effect on current and conductance of water injected oocytes ([5]; 1 µM emodepside, voltage steps): little or no agonist effects; also recorded: no detectable change

Molecule: Nc1c(S(=O)(=O)O)cc(Nc2ccc3c(c2)CCCC3)c2c1C(=O)c1ccccc1C2=O [GoSlo-SR-5–69]
- change in emodepside Rmax (Ovo-SLO-1A [1]; 3 µM GoSlo-SR-5-69): significantly increased
- shift in emodepside EC50 (Ovo-SLO-1A [1]; 3 µM GoSlo-SR-5-69): did not cause a significant shift; also recorded: remained unchanged
- potentiation of emodepside responses in the absence of extracellular Ca2+ (Ovo-SLO-1A [1]; [11]): still potentiated
- agonist activity (channel activation) alone (Ovo-SLO-1A [1]; [12]): lacks agonist activity; also recorded: does not by itself activate
- percentage increase in peak currents of the emodepside response (Ovo-SLO-1A [1]; [13]): 65.2%
- increase in emodepside Rmax (Bma-SLO-1F [2]; 3 µM GoSlo-SR-5-69): 1.7 fold
- increase in sensitivity to emodepside (EC50 shift) (Bma-SLO-1F [2]; 3 µM GoSlo-SR-5-69): 7 fold
- potentiation of emodepside responses in the absence of extracellular Ca2+ (Bma-SLO-1F [2]; [11]): still potentiated
- agonist activity (channel activation) alone (Bma-SLO-1F [2]; [12]): lacks agonist activity; also recorded: does not by itself activate
- percentage increase in peak currents of the emodepside response (Bma-SLO-1F [2]; [13]): 200%
- current produced in water injected oocytes ([5]; 3 µM GoSlo-SR-5-69, +20 mV, also seen in SLO-1 expressing oocytes): slowly inactivating inward current
- EC50 (mammalian BK channel): 251 nM
